Test results reported in paper PMC6366420, “Design and synthesis of 4-piperazinyl quinoline derived urea/thioureas for anti-breast cancer activity by a hybrid pharmacophore approach” (Journal of Enzyme Inhibition and Medicinal Chemistry, 2019).
Where two headings read alike, the source gives them in different places.

Assays:
MDA-MB231 = experiment: SRB antiproliferative assay, MDA-MB231; assay type: cell-based, human; details: read-out: GI50 MDA-MB231
Experimental: (§1) The human breast cancer cell lines MDA-MB468, MDA-MB231 and MCF-7 were purchased from ATCC and maintained in RPMI 1640 medium supplemented with 10% fetal bovine serum (Hyclone, Logan UT) and 2 mM L-glutamine. MCF10A and 184B5 immortalised breast cells were purchased from ATCC and maintained in mammary epithelial basal medium supplemented with an MEGM mammary epithelial singlequot kit (Cambrex). Cells were grown at 37 °C with 5% CO2, 95% air under the humidified conditions. Cell line authentication was carried out by Genetica DNA Laboratories (Burlington, NC) using a short tandem repeat profiling method (March 2015; July 2015; September 2016).
(§2) Cell cytotoxic effects were determined by a SRB-based protocol[2]^,[25].
(§3) The newly synthesised 4-piperazinylquinoline compounds (5–30) were evaluated for their antiproliferative effects using three breast cancer cell lines, for which the compounds were diluted to achieve seven different concentrations ranging from […]. Followed by 48 h incubation with the compound, cells were treated with sulforhodamine B (SRB) to measure their growth/viability (% of the untreated control) by spectrophotometer. The total cellular macromolecules levels known to accurately reflect by UV reading of SRB staining. […] The reference compounds CQ and cisplatin were included for the comparison.

MCF7 = experiment: SRB antiproliferative assay, MCF7; assay type: cell-based, human; details: read-out: GI50 MCF7
Experimental: as §1, §2, §3

MDA-MB468 = experiment: SRB antiproliferative assay, MDA-MB468; assay type: cell-based, human; details: read-out: GI50 MDA-MB468
Experimental: as §1, §2, §3

MCF10A = experiment: SRB antiproliferative assay, MCF10A non-cancer breast cells; assay type: cell-based, human; details: read-out: GI50 MCF10A
Experimental: as §1, §2, §3
(§4) We further assessed their antiproliferative effects on two non-cancer immortalised cell lines (184B5 and MCF10A). […] The antiproliferative effects of compound 23 on cancer cells are thus 7-fold (MDA-MB468 vs MCF10A) to 11-fold (MDA-MB231 vs 184B5) higher than matching non-cancer breast cells, which may indicate that compound 23 could potentially be safer than other compounds. Therefore, we examined it further to gain insights into its molecular mechanism of action.

184B5 = experiment: SRB antiproliferative assay, 184B5 non-cancer breast cells; assay type: cell-based, human; details: read-out: GI50 184B5
Experimental: as §1, §2, §3, §4

[1] = system: breast cancer and non-cancer breast cell lines; experiment: SRB antiproliferative comparison of breast cancer and non-cancer breast cell lines; assay type: cell-based, human; details: for higher activity than the reference compounds cisplatin and CQ: breast cancer cell lines, GI50 comparison; for antigrowth effect against cancer versus non-cancer cells (in words): three breast cancer lines vs 184B5 and MCF10A
Experimental: as §1, §2, §3, §4

[2] = Homo sapiens, MDA-MB-231, 48 h, SRB, 48 h incubation, MDA-MB231 triple-negative breast cancer cells
[3] = Homo sapiens, SRB, 48 h incubation, MCF7 breast cancer cells
[4] = Homo sapiens, MDA-MB-468, 48 h, SRB, 48 h incubation, MDA-MB468 breast cancer cells
[5] = Homo sapiens, MCF-10A, SRB, 48 h incubation, MCF10A non-cancer immortalised breast cells
[6] = Homo sapiens, SRB, 48 h incubation, 184B5 non-cancer immortalised breast cells

Row | Compound | GI50 (MDA-MB231; Homo sapiens, MDA-MB-231, 48 h) | GI50 (MCF7; Homo sapiens, MCF7, 48 h) | GI50 (MDA-MB468; Homo sapiens, MDA-MB-468, 48 h) | GI50 (MCF10A; Homo sapiens, MCF-10A, 48 h) | GI50 (184B5; Homo sapiens, 184B5, 48 h) | GI50 (MDA-MB231; SRB, 48 h incubation, MDA-MB231 triple-negative breast cancer cells) | GI50 (MCF7; SRB, 48 h incubation, MCF7 breast cancer cells) | GI50 (MDA-MB468; SRB, 48 h incubation, MDA-MB468 breast cancer cells) | GI50 (MCF10A; SRB, 48 h incubation, MCF10A non-cancer immortalised breast cells) | GI50 (184B5; SRB, 48 h incubation, 184B5 non-cancer immortalised breast cells) | GI50 (MDA-MB231; [2]) | GI50 (MCF7; [3]) | higher activity than the reference compounds cisplatin and CQ [1] | antigrowth effect against cancer versus non-cancer cells (in words) [1] | GI50 (MDA-MB468; [4]) | melting point | GI50 (MCF10A; [5]) | GI50 (184B5; [6])
1 | CCN(CC)CCCC(C)Nc1ccnc2cc(Cl)ccc12 (stereo not shown) [CQ, Chloroquine, reference compound] | 22.5 ± 1.4 µM | 38.4 ± 0.3 µM | 28.6 ± 0.2 µM | 81.3 ± 1.4 µM | 76.1 ± 0.2 µM |  |  |  |  |  |  |  |  |  |  |  |  | 
2 | N.N.[Cl][Pt][Cl] [Cisplatin, reference compound] |  |  |  |  |  | 23.6 ± 0.2 µM | 25.8 ± 0.7 µM | 31 ± 0.3 µM | 51.5 ± 0.6 µM | 25.5 ± 0.6 µM |  |  |  |  |  |  |  | 
3 | O=C(Nc1ccccc1)N1CCN(c2ccnc3cc(Cl)ccc23)CC1 [Compound 5, 4-(7-Chloro-quinolin-4-yl)-piperazine-1-carboxylic acid phenylamide] |  |  |  |  |  |  |  |  |  |  | 5.3 ± 0.5 µM | 6.6 ± 0.6 µM | 4-8 fold | much stronger activities against cancer than non-cancer cells | 4.7 ± 0.5 µM | 142 to 143 °C | 11.8 ± 1.4 µM | 14.1 ± 0.9 µM
4 | Cc1ccc(C)c(NC(=O)N2CCN(c3ccnc4cc(Cl)ccc34)CC2)c1 [Compound 6, 4-(7-Chloro-quinolin-4-yl)-piperazine-1-carboxylic acid (2,5-dimethyl-phenyl)-amide] |  |  |  |  |  |  |  |  |  |  | 50.6 ± 3.2 µM | 28.9 ± 1.4 µM |  | higher activity against non-cancer cells than cancer cells | 35.5 ± 1.3 µM | 118 to 119 °C | 18.8 ± 1.3 µM | 19.8 ± 1 µM
5 | O=C(Nc1ccc(C(F)(F)F)cc1)N1CCN(c2ccnc3cc(Cl)ccc23)CC1 [Compound 7, 4-(7-Chloro-quinolin-4-yl)-piperazine-1-carboxylic acid (4-trifluoromethyl-phenyl)-amide] |  |  |  |  |  |  |  |  |  |  | 21.8 ± 1.5 µM | 16.6 ± 1.2 µM |  | higher activity against non-cancer cells than cancer cells | 19.8 ± 0.8 µM |  | 4.6 ± 0.3 µM | 4.7 ± 0.3 µM
6 | O=C(Nc1c(Cl)cc(Cl)cc1Cl)N1CCN(c2ccnc3cc(Cl)ccc23)CC1 [Compound 8, 4-(7-Chloro-quinolin-4-yl)-piperazine-1-carboxylic acid (2,4,6-trichloro-phenyl)-amide] |  |  |  |  |  |  |  |  |  |  | 29.1 ± 1.7 µM | 23.7 ± 2.4 µM |  | comparable against cancer and non-cancer cells | 30.4 ± 2 µM | 168 to 169 °C | 23.7 ± 1 µM | 22.3 ± 1.7 µM
7 | O=C(Nc1cccc2ccccc12)N1CCN(c2ccnc3cc(Cl)ccc23)CC1 [Compound 9, 4-(7-Chloro-quinolin-4-yl)-piperazine-1-carboxylic acid naphthalen-1-ylamide] |  |  |  |  |  |  |  |  |  |  | 9.1 ± 1 µM | 9.4 ± 0.8 µM | 4-8 fold | much stronger activities against cancer than non-cancer cells | 7.1 µM | 138 to 139 °C | 21.8 ± 1 µM | 21.8 ± 1 µM
8 | O=C(NC1CCCCC1)N1CCN(c2ccnc3cc(Cl)ccc23)CC1 [Compound 10, 4-(7-Chloro-quinolin-4-yl)-piperazine-1-carboxylic acid cyclohexylamide] |  |  |  |  |  |  |  |  |  |  | 20.8 ± 1.3 µM | 6 ± 0.5 µM |  | comparable against cancer and non-cancer cells | 10.9 ± 0.8 µM | 112 to 113 °C | 15.7 ± 1.3 µM | 16.3 ± 1 µM
9 | O=C(Nc1ccccc1)N1CCN(c2ccnc3cc(C(F)(F)F)ccc23)CC1 [Compound 11, 4-(7-Trifluoromethyl-quinolin-4-yl)-piperazine-1-carboxylic acid phenylamide] |  |  |  |  |  |  |  |  |  |  | 20.6 ± 1.4 µM | 11 ± 0.6 µM |  | comparable against cancer and non-cancer cells | 57.6 ± 3.2 µM | 146 to 147 °C | 21.1 ± 1.6 µM | 12.2 ± 1.3 µM
10 | Cc1ccc(C)c(NC(=O)N2CCN(c3ccnc4cc(C(F)(F)F)ccc34)CC2)c1 [Compound 12, 4-(7-Trifluoromethyl-quinolin-4-yl)-piperazine-1-carboxylic acid (2,5-dimethyl-phenyl)-amide] |  |  |  |  |  |  |  |  |  |  | 39.6 ± 2.1 µM | 22.5 ± 1.4 µM |  | higher activity against non-cancer cells than cancer cells | 21.7 ± 1 µM | 108 to 109 °C | 8.8 ± 0.9 µM | 7.6 ± 0.7 µM
11 | O=C(Nc1ccc(C(F)(F)F)cc1)N1CCN(c2ccnc3cc(C(F)(F)F)ccc23)CC1 [Compound 13, 4-(7-Trifluoromethyl-quinolin-4-yl)-piperazine-1-carboxylic acid (4-trifluoromethyl-phenyl)-amide] |  |  |  |  |  |  |  |  |  |  | 15.3 ± 1.3 µM | 2 ± 0.1 µM |  | higher activity against non-cancer cells than cancer cells | 2.7 ± 0.1 µM | 154 to 155 °C | 1 ± 0.1 µM | 1.1 ± 0.1 µM
12 | O=C(Nc1c(Cl)cc(Cl)cc1Cl)N1CCN(c2ccnc3cc(C(F)(F)F)ccc23)CC1 [Compound 14, 4-(7-Trifluoromethyl-quinolin-4-yl)-piperazine-1-carboxylic acid (2,4,6-trichloro-phenyl)-amide] |  |  |  |  |  |  |  |  |  |  | 21.1 ± 1.3 µM | 12.6 ± 1.2 µM |  | comparable against cancer and non-cancer cells | 22.5 ± 0.2 µM | 142 to 143 °C | 17.4 ± 0.5 µM | 33.2 ± 2.1 µM
13 | O=C(Nc1cccc2ccccc12)N1CCN(c2ccnc3cc(C(F)(F)F)ccc23)CC1 [Compound 15, 4-(7-Trifluoromethyl-quinolin-4-yl)-piperazine-1-carboxylic acid naphthalen-1-ylamide] |  |  |  |  |  |  |  |  |  |  | 17.8 ± 1 µM | 7.5 ± 0.6 µM |  | comparable against cancer and non-cancer cells | 9.6 ± 0.9 µM | 127 to 128 °C | 11.1 ± 0.9 µM | 27.9 ± 1.7 µM
14 | O=C(NC1CCCCC1)N1CCN(c2ccnc3cc(C(F)(F)F)ccc23)CC1 [Compound 16, 4-(7-Trifluoromethyl-quinolin-4-yl)-piperazine-1-carboxylic acid cyclohexylamide] |  |  |  |  |  |  |  |  |  |  | 20.8 ± 2.3 µM | 4.9 ± 0.3 µM |  | comparable against cancer and non-cancer cells | 12.7 ± 0.5 µM | 132 to 133 °C | 20.9 ± 1 µM | 20.8 ± 1.4 µM
15 | S=C(Nc1ccccc1)N1CCN(c2ccnc3cc(Cl)ccc23)CC1 [Compound 17, 4-(7-Chloro-quinolin-4-yl)-piperazine-1-carbothioic acid phenylamide] |  |  |  |  |  |  |  |  |  |  | 4.8 ± 0.2 µM | 4.9 ± 0.3 µM |  | much stronger activities against cancer than non-cancer cells | 11.8 ± 0.6 µM | 171 to 172 °C | 13.9 ± 1.3 µM | 19.2 ± 1.6 µM
16 | Cc1cccc(C)c1NC(=S)N1CCN(c2ccnc3cc(Cl)ccc23)CC1 [Compound 18, 4-(7-Chloro-quinolin-4-yl)-piperazine-1-carbothioic acid (2,6-dimethyl-phenyl)-amide] |  |  |  |  |  |  |  |  |  |  | 9.6 ± 0.5 µM | 7.3 ± 0.5 µM |  | much stronger activities against cancer than non-cancer cells | 7.8 ± 0.8 µM | 138 to 139 °C | 52.3 ± 2.9 µM | 16.7 ± 1 µM
